pIC50: −log10 of the molar value.
Target: T1, Dipeptidyl peptidase 4 (Homo sapiens, UniProt P27487)
Assay: Inhibition of DPP4 in presence of 50% human serum
Conditions: not given

T1 sequence (P27487 whole entry): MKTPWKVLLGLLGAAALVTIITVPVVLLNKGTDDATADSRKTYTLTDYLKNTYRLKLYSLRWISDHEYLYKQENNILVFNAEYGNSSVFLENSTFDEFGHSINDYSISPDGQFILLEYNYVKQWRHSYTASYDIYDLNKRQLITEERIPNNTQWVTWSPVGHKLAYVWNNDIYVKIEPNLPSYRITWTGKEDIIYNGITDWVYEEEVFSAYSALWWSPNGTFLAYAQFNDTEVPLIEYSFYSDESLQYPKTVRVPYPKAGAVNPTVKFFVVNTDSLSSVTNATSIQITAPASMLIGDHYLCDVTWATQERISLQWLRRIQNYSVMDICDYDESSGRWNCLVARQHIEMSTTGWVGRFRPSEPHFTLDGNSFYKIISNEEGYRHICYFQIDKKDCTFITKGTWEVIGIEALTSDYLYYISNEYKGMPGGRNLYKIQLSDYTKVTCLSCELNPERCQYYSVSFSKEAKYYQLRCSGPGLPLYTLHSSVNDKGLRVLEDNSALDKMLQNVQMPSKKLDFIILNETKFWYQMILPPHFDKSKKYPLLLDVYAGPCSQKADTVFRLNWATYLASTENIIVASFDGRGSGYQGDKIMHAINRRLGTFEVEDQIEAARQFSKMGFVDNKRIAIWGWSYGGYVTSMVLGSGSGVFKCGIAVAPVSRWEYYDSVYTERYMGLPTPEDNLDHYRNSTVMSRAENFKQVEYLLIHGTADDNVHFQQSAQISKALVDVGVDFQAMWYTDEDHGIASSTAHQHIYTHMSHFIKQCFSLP

Row | SMILES | pIC50
1 | CN(C)C(=O)[C@@H](c1ccc(-c2ccc3ncnn3c2)cc1)[C@H](N)C(=O)N1CC(F)C1.O=C(O)C(F)(F)F | 7.39
2 | CN(C)C(=O)[C@@H](c1ccc(-c2ccn3ncnc3c2)cc1)[C@H](N)C(=O)N1CC[C@H](F)C1.O=C(O)C(F)(F)F | 7.46
3 | CN(C)C(=O)[C@@H](c1ccc(-c2ccc3ncnn3c2)cc1)[C@H](N)C(=O)N1CCCC1.O=C(O)C(F)(F)F | 7.20

Test system: not listed separately
Assay: Cmax in dog at 2 mg/kg, po
Type: ADME, organism-based, Canis lupus familiaris
Parameters: dose 2 mg/kg, route oral
Conditions: in vivo

Row | SMILES | Cmax [nM]
4 | CN(C)C(=O)[C@@H](c1ccc(-c2ccc3ncnn3c2)cc1)[C@H](N)C(=O)N1CC(F)C1.O=C(O)C(F)(F)F | 4000
5 | CN(C)C(=O)[C@@H](c1ccc(-c2ccc3ncnn3c2)cc1)[C@H](N)C(=O)N1CCCC1.O=C(O)C(F)(F)F | 5900

Target: T1, Dipeptidyl peptidase 4
Assay: Inhibition of DPP4
Conditions: not given

Row | SMILES | pIC50
6 | CN(C)C(=O)[C@@H](c1ccc(-c2ccc3ncnn3c2)cc1)[C@H](N)C(=O)N1CC(F)C1.O=C(O)C(F)(F)F | 8.57
7 | CN(C)C(=O)[C@@H](c1ccc(-c2ccn3ncnc3c2)cc1)[C@H](N)C(=O)N1CC[C@H](F)C1.O=C(O)C(F)(F)F | 8.28
8 | CN(C)C(=O)[C@@H](c1ccc(-c2ccc3ncnn3c2)cc1)[C@H](N)C(=O)N1CCCC1.O=C(O)C(F)(F)F | 8.28

Test system: not listed separately
Assay: Bioavailability in rat at 1 mg/kg, iv and 2 mg/kg, po
Type: ADME, organism-based
Conditions: in vivo

Row | SMILES | bioavailability [%]
9 | CN(C)C(=O)[C@@H](c1ccc(-c2ccc3ncnn3c2)cc1)[C@H](N)C(=O)N1CC(F)C1.O=C(O)C(F)(F)F | 37
10 | CN(C)C(=O)[C@@H](c1ccc(-c2ccn3ncnc3c2)cc1)[C@H](N)C(=O)N1CC[C@H](F)C1.O=C(O)C(F)(F)F | 21
11 | CN(C)C(=O)[C@@H](c1ccc(-c2ccc3ncnn3c2)cc1)[C@H](N)C(=O)N1CCCC1.O=C(O)C(F)(F)F | 46

Test system: Canis familiaris
Assay: AUC in dog at 2 mg/kg, po normalized to 1 mg/kg
Type: ADME, organism-based, Canis lupus familiaris, Plasma
Conditions: in vivo

Row | SMILES | AUC [µM·h]
12 | CN(C)C(=O)[C@@H](c1ccc(-c2ccc3ncnn3c2)cc1)[C@H](N)C(=O)N1CC(F)C1.O=C(O)C(F)(F)F | 6.9
13 | CN(C)C(=O)[C@@H](c1ccc(-c2ccc3ncnn3c2)cc1)[C@H](N)C(=O)N1CCCC1.O=C(O)C(F)(F)F | 6.8

Test system: not listed separately
Assay: Cmax in rat at 2 mg/kg, po
Type: ADME, organism-based
Parameters: dose 2 mg/kg, route oral
Conditions: in vivo

Row | SMILES | Cmax [nM]
14 | CN(C)C(=O)[C@@H](c1ccc(-c2ccc3ncnn3c2)cc1)[C@H](N)C(=O)N1CC(F)C1.O=C(O)C(F)(F)F | 2400
15 | CN(C)C(=O)[C@@H](c1ccc(-c2ccn3ncnc3c2)cc1)[C@H](N)C(=O)N1CC[C@H](F)C1.O=C(O)C(F)(F)F | 600
16 | CN(C)C(=O)[C@@H](c1ccc(-c2ccc3ncnn3c2)cc1)[C@H](N)C(=O)N1CCCC1.O=C(O)C(F)(F)F | 2100

Target: Dipeptidyl peptidase 9 (Homo sapiens, UniProt Q86TI2)
Assay: Inhibition of DPP9
Conditions: not given

Dipeptidyl peptidase 9, sequence (Q86TI2 whole entry): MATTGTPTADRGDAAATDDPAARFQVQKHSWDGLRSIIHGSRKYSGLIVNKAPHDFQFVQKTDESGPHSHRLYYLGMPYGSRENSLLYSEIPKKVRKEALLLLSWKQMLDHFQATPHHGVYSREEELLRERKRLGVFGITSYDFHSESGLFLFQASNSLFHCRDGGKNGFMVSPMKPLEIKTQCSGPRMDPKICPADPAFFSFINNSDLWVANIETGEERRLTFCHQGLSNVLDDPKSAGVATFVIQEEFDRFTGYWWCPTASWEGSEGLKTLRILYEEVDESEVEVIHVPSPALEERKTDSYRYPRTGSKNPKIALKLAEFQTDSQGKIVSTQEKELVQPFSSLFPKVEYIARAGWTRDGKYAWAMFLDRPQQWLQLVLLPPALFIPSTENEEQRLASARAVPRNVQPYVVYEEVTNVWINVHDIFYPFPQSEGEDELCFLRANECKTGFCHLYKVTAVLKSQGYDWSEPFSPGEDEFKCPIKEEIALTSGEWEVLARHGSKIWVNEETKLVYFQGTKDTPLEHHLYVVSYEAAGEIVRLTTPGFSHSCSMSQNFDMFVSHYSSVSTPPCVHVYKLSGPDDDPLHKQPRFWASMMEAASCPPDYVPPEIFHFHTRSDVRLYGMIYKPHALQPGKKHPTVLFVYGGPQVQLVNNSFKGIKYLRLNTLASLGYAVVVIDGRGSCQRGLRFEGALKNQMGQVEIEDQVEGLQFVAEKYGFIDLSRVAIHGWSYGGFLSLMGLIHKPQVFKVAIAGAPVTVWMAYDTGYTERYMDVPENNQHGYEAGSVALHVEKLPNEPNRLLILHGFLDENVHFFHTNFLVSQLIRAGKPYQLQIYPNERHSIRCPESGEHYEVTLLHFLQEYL

Row | SMILES | pIC50
17 | CN(C)C(=O)[C@@H](c1ccc(-c2ccc3ncnn3c2)cc1)[C@H](N)C(=O)N1CC(F)C1.O=C(O)C(F)(F)F | < 4.00
18 | CN(C)C(=O)[C@@H](c1ccc(-c2ccn3ncnc3c2)cc1)[C@H](N)C(=O)N1CC[C@H](F)C1.O=C(O)C(F)(F)F | < 4.00
19 | CN(C)C(=O)[C@@H](c1ccc(-c2ccc3ncnn3c2)cc1)[C@H](N)C(=O)N1CCCC1.O=C(O)C(F)(F)F | 4.85

Test system: not listed separately
Assay: Plasma clearance in rat at 1 mg/kg, iv or 2 mg/kg, po
Type: ADME, organism-based
Conditions: not given

Row | SMILES | clearance [mL/min/kg]
20 | CN(C)C(=O)[C@@H](c1ccc(-c2ccc3ncnn3c2)cc1)[C@H](N)C(=O)N1CC(F)C1.O=C(O)C(F)(F)F | 7.3
21 | CN(C)C(=O)[C@@H](c1ccc(-c2ccn3ncnc3c2)cc1)[C@H](N)C(=O)N1CC[C@H](F)C1.O=C(O)C(F)(F)F | 10
22 | CN(C)C(=O)[C@@H](c1ccc(-c2ccc3ncnn3c2)cc1)[C@H](N)C(=O)N1CCCC1.O=C(O)C(F)(F)F | 7.7

Test system: Rattus norvegicus
Assay: AUC in rat at 2 mg/kg, po normalized to 1 mg/kg
Type: ADME, organism-based, Plasma
Conditions: in vivo

Row | SMILES | AUC [µM·h]
23 | CN(C)C(=O)[C@@H](c1ccc(-c2ccc3ncnn3c2)cc1)[C@H](N)C(=O)N1CC(F)C1.O=C(O)C(F)(F)F | 2.2
24 | CN(C)C(=O)[C@@H](c1ccc(-c2ccn3ncnc3c2)cc1)[C@H](N)C(=O)N1CC[C@H](F)C1.O=C(O)C(F)(F)F | 0.83
25 | CN(C)C(=O)[C@@H](c1ccc(-c2ccc3ncnn3c2)cc1)[C@H](N)C(=O)N1CCCC1.O=C(O)C(F)(F)F | 2.9

Test system: not listed separately
Assay: Half life in rat at 1 mg/kg, iv or 2 mg/kg, po
Type: ADME, organism-based
Conditions: in vivo

Row | SMILES | half-life [h]
26 | CN(C)C(=O)[C@@H](c1ccc(-c2ccc3ncnn3c2)cc1)[C@H](N)C(=O)N1CC(F)C1.O=C(O)C(F)(F)F | 2.1
27 | CN(C)C(=O)[C@@H](c1ccc(-c2ccn3ncnc3c2)cc1)[C@H](N)C(=O)N1CC[C@H](F)C1.O=C(O)C(F)(F)F | 1.7
28 | CN(C)C(=O)[C@@H](c1ccc(-c2ccc3ncnn3c2)cc1)[C@H](N)C(=O)N1CCCC1.O=C(O)C(F)(F)F | 1.6

Target: Xaa-Pro aminopeptidase 1 (Homo sapiens, UniProt Q9NQW7)
Assay: Inhibition of aminopeptidase P
Conditions: not given

Xaa-Pro aminopeptidase 1, sequence (Q9NQW7 whole entry): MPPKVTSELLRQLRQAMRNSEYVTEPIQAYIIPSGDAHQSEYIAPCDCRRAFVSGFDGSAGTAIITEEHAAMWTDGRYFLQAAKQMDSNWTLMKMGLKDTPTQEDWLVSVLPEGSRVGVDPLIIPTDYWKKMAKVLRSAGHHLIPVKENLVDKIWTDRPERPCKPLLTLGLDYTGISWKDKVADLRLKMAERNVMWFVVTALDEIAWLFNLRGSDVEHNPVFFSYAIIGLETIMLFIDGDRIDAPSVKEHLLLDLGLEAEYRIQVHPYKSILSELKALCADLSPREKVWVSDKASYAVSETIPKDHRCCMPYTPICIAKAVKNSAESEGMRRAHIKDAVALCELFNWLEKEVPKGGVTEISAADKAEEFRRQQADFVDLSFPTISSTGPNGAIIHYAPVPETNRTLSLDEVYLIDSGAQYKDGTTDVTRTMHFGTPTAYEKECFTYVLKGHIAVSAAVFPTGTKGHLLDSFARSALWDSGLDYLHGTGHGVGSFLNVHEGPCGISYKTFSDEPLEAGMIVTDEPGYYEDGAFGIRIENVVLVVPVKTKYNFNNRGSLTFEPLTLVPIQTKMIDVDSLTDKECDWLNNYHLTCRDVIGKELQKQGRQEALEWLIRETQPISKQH

Row | SMILES | pIC50
29 | CN(C)C(=O)[C@@H](c1ccc(-c2ccc3ncnn3c2)cc1)[C@H](N)C(=O)N1CC(F)C1.O=C(O)C(F)(F)F | < 4.40
30 | CN(C)C(=O)[C@@H](c1ccc(-c2ccn3ncnc3c2)cc1)[C@H](N)C(=O)N1CC[C@H](F)C1.O=C(O)C(F)(F)F | < 4.40
31 | CN(C)C(=O)[C@@H](c1ccc(-c2ccc3ncnn3c2)cc1)[C@H](N)C(=O)N1CCCC1.O=C(O)C(F)(F)F | < 4.40

Test system: not listed separately
Assay: Bioavailability in dog at 1 mg/kg, iv and 2 mg/kg, po
Type: ADME, organism-based, Canis lupus familiaris
Conditions: in vivo

Row | SMILES | bioavailability [%]
32 | CN(C)C(=O)[C@@H](c1ccc(-c2ccc3ncnn3c2)cc1)[C@H](N)C(=O)N1CC(F)C1.O=C(O)C(F)(F)F | 100
33 | CN(C)C(=O)[C@@H](c1ccc(-c2ccc3ncnn3c2)cc1)[C@H](N)C(=O)N1CCCC1.O=C(O)C(F)(F)F | 98

Test system: not listed separately
Assay: Plasma clearance in dog at 1 mg/kg, iv or 2 mg/kg, po
Type: ADME, organism-based, Canis lupus familiaris
Conditions: not given

Row | SMILES | clearance [mL/min/kg]
34 | CN(C)C(=O)[C@@H](c1ccc(-c2ccc3ncnn3c2)cc1)[C@H](N)C(=O)N1CC(F)C1.O=C(O)C(F)(F)F | 6.1
35 | CN(C)C(=O)[C@@H](c1ccc(-c2ccc3ncnn3c2)cc1)[C@H](N)C(=O)N1CCCC1.O=C(O)C(F)(F)F | 5.9

Target: Dipeptidyl peptidase 2 (Homo sapiens, UniProt Q9UHL4)
Assay: Inhibition of QPP
Conditions: not given

Row | SMILES | pIC50
36 | CN(C)C(=O)[C@@H](c1ccc(-c2ccc3ncnn3c2)cc1)[C@H](N)C(=O)N1CC(F)C1.O=C(O)C(F)(F)F | < 4.00
37 | CN(C)C(=O)[C@@H](c1ccc(-c2ccn3ncnc3c2)cc1)[C@H](N)C(=O)N1CC[C@H](F)C1.O=C(O)C(F)(F)F | 4.85
38 | CN(C)C(=O)[C@@H](c1ccc(-c2ccc3ncnn3c2)cc1)[C@H](N)C(=O)N1CCCC1.O=C(O)C(F)(F)F | < 4.00

Target: T2, Xaa-Pro dipeptidase (Homo sapiens, UniProt P12955)
T2 sequence (P12955 whole entry): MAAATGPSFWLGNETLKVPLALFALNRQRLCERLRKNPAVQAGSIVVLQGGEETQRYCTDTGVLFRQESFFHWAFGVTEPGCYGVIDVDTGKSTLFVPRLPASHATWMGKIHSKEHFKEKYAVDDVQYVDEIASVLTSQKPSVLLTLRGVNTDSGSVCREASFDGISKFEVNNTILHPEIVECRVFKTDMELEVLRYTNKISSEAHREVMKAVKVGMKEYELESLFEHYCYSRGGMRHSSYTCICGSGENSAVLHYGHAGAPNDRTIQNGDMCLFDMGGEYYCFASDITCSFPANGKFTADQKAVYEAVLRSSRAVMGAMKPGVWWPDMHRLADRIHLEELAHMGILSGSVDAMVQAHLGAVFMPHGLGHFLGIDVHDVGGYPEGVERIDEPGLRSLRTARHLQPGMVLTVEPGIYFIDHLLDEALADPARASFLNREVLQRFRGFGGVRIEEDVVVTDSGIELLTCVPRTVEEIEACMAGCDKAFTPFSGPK
Assay: Inhibition of prolidase
Conditions: not given

Row | SMILES | pIC50
39 | CN(C)C(=O)[C@@H](c1ccc(-c2ccc3ncnn3c2)cc1)[C@H](N)C(=O)N1CC(F)C1.O=C(O)C(F)(F)F | < 4.40
40 | CN(C)C(=O)[C@@H](c1ccc(-c2ccn3ncnc3c2)cc1)[C@H](N)C(=O)N1CC[C@H](F)C1.O=C(O)C(F)(F)F | < 4.40
41 | CN(C)C(=O)[C@@H](c1ccc(-c2ccc3ncnn3c2)cc1)[C@H](N)C(=O)N1CCCC1.O=C(O)C(F)(F)F | < 4.40

Target: T3, Prolyl endopeptidase FAP (Homo sapiens, UniProt Q12884)
T3 sequence (Q12884 whole entry): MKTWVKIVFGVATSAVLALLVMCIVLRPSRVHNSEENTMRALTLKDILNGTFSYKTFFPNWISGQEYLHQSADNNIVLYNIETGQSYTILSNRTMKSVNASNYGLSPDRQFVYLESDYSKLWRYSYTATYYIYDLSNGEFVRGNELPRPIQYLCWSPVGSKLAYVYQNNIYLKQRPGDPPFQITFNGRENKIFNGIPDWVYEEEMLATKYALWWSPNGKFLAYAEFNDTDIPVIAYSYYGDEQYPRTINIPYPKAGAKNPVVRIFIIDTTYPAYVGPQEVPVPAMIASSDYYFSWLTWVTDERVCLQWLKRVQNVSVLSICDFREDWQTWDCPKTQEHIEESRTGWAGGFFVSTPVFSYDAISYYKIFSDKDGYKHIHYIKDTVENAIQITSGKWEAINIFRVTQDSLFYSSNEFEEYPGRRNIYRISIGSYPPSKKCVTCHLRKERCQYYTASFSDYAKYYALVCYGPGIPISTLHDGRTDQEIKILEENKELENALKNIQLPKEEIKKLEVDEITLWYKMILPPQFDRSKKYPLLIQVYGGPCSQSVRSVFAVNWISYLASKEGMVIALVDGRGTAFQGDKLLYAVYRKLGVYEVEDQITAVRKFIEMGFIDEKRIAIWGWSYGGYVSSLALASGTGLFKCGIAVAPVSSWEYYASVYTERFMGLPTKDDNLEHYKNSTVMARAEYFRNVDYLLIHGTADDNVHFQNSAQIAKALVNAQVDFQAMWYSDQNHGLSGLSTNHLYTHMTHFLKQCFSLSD
Assay: Inhibition of FAP
Conditions: not given

Row | SMILES | pIC50
42 | CN(C)C(=O)[C@@H](c1ccc(-c2ccc3ncnn3c2)cc1)[C@H](N)C(=O)N1CC(F)C1.O=C(O)C(F)(F)F | < 4.40
43 | CN(C)C(=O)[C@@H](c1ccc(-c2ccn3ncnc3c2)cc1)[C@H](N)C(=O)N1CC[C@H](F)C1.O=C(O)C(F)(F)F | < 4.40
44 | CN(C)C(=O)[C@@H](c1ccc(-c2ccc3ncnn3c2)cc1)[C@H](N)C(=O)N1CCCC1.O=C(O)C(F)(F)F | < 4.40

Test system: not listed separately
Assay: Half life in dog at 1 mg/kg, iv or 2 mg/kg, po
Type: ADME, organism-based, Canis lupus familiaris
Conditions: in vivo

Row | SMILES | half-life [h]
45 | CN(C)C(=O)[C@@H](c1ccc(-c2ccc3ncnn3c2)cc1)[C@H](N)C(=O)N1CC(F)C1.O=C(O)C(F)(F)F | 2
46 | CN(C)C(=O)[C@@H](c1ccc(-c2ccc3ncnn3c2)cc1)[C@H](N)C(=O)N1CCCC1.O=C(O)C(F)(F)F | 1.1

Target: Dipeptidyl peptidase 8 (Homo sapiens, UniProt Q6V1X1)
Assay: Inhibition of DPP8
Conditions: not given

Dipeptidyl peptidase 8, sequence (Q6V1X1 whole entry): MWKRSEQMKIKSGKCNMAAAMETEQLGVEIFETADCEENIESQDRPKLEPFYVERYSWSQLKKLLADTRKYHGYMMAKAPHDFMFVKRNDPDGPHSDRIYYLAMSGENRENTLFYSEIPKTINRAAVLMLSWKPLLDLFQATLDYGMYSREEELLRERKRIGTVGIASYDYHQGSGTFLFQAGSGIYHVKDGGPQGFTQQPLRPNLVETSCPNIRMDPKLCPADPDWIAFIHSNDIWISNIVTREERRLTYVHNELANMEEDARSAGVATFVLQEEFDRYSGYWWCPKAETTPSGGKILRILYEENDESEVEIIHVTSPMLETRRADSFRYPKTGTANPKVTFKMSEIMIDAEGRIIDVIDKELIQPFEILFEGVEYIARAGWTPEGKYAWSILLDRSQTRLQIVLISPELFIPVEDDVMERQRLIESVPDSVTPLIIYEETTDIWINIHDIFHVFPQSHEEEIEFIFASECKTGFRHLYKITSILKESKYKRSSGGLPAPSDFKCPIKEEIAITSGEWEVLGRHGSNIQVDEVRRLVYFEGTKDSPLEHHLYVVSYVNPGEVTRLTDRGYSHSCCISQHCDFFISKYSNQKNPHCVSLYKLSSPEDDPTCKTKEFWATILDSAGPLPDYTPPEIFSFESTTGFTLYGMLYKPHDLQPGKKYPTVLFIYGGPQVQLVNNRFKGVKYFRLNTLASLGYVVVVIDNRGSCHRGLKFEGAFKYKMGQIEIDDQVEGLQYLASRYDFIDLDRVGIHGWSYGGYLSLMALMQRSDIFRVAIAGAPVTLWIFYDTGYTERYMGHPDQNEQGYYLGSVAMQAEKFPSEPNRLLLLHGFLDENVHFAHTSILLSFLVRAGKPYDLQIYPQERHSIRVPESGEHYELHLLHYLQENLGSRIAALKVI

Row | SMILES | pIC50
47 | CN(C)C(=O)[C@@H](c1ccc(-c2ccc3ncnn3c2)cc1)[C@H](N)C(=O)N1CC(F)C1.O=C(O)C(F)(F)F | < 4.00
48 | CN(C)C(=O)[C@@H](c1ccc(-c2ccn3ncnc3c2)cc1)[C@H](N)C(=O)N1CC[C@H](F)C1.O=C(O)C(F)(F)F | < 4.00
49 | CN(C)C(=O)[C@@H](c1ccc(-c2ccc3ncnn3c2)cc1)[C@H](N)C(=O)N1CCCC1.O=C(O)C(F)(F)F | < 4.00
